Data set [1] has as its system Clinical Staphylococcus aureus DM4001. Kind of data set: Cytoplasmic membrane depolarization (DiSC3 dye). Format: cell-based. To be noted: DiSC3 fluorescence; AM-016 at 12.5 ug/mL. The protocol:
Membrane potential-sensitive dye 3,3′-dipropylthiadicarbocyanine iodide (DiSC3) was used to determine the cytoplasmic membrane depolarization activity of AM-016. An overnight culture of clinical Staphylococcus aureus DM4001(source: Eye) was allowed to grow in Muller-Hinton broth (MHB) to OD620=0.3-0.4. Then, the bacteria was collected by centrifugation at 2800 r.p.m at 37° C. for 30 minutes and washed with 5 mM HEPES buffer at pH7. […] The cell suspension was then incubated with 0.1M KCl and 0.4 μM DiSC3 at 37° C. for 30 minutes. Dye uptake was monitored by fluorospectrometry (Photon Technology International (PTI) Photomultiplier Detection Systems, model 814) in a stirred cuvette until the fluorescence signal was stable. The desired concentration of AM-016 was added and the fluorescence was monitored at an excitation wavelength of 622 nm and at an emission wavelength of 670 nm. A blank with dye in the absence of bacteria with same concentration of AM-016 was used as a control.

For data set [2], the system named is Staphylococcus aureus ATCC29213. Description: MIC against S. aureus ATCC29213. The class given is cell-based.
The subject of the next data set is S. aureus DM4001. Description: SYTOX green membrane permeabilization assay, S. aureus. To be noted: 10 μM.
In data set [3] the test system is Pseudomonas aeruginosa ATCC27853. Description: MIC against Pseudomonas aeruginosa ATCC27853. The class given is cell-based.
Data set [4] relates to MRSA DM21455. Description: MIC against MRSA DM21455. The class given is cell-based, Staphylococcus aureus. To be noted: for MIC: Staphylococcus aureus.
In another data set the test system is MRSA DM09808R. Kind of data set: MIC against MRSA DM09808R. Format: cell-based, Staphylococcus aureus. The conditions noted are these: for MIC: Staphylococcus aureus.
For a further data set, the system named is Gram-positive bacteria. Description: Antimicrobial activity against Gram-positive bacteria (statement). The class given is cell-based. The conditions noted are these: at 50 ug/ml.
Another data set relates to S. aureus. Description: MIC99 against S. aureus (Table 2-1). Format: cell-based, Staphylococcus aureus.
Another data set concerns MRSA. Kind of data set: MIC99 against MRSA (Table 2-1). The class given is cell-based, Staphylococcus aureus.
Data set [5] deals with Mycobacterium tuberculosis. Kind of data set: microbe, parasite or virus in culture. To be noted: read-out: MIC100.
The format of data set [6] is physicochemical. To be noted: pH 7. The protocol:
The solvent was added stepwise until the compound was dissolved completely. Then, the stock solution was diluted to series of diluents and the absorbance of each diluent was determined.

Data set [7] concerns Bacillus cereus ATCC11778. Kind of data set: MIC against Bacillus cereus ATCC11778. Format: cell-based.
Data set [8] is described as follows: pH value in different media. The class given is physicochemical. The text has this: The pH values were obtained using an electronic pH meter.
In data set [9] the test system is Klebsiella pneumoniae ATCC10031. Kind of data set: MIC against Klebsiella pneumoniae ATCC10031. The class given is cell-based.
In data set [10] the test system is Staphylococcus aureus ATCC 700699 (VISA). Description: MIC against S. aureus ATCC 700699 (MRSA-700699, VISA). To be noted: for MIC: Staphylococcus aureus. The class given is cell-based.
In another data set the test system is MRSA DM21595. Description: MIC against MRSA DM21595. The class given is cell-based, Staphylococcus aureus. To be noted: Staphylococcus aureus.
For a further data set, the system named is MRSA DR42412. Kind of data set: MIC against MRSA DR42412. Format: cell-based, Staphylococcus aureus. To be noted: Staphylococcus aureus.
In data set [11] the test system is Enterococcus faecalis 11: DS6527 (VRE 208/11). Kind of data set: MIC against Enterococcus faecalis DS6527 (VRE 208/11). Format: cell-based. The conditions noted are these: E. faecalis DS6527 (VRE 208/11); no unit in table (Example 10 MICs in μg/ml).
Data set [12] concerns Enterococcus faecalis ATCC 51299 VRE. Description: MIC against Enterococcus faecalis ATCC 51299 VRE. The class given is cell-based. The conditions noted are these: E. faecalis ATCC 51299 VRE; no unit in table (Example 10 MICs in μg/ml).
In data set [13] the test system is MRSA DM21455. Kind of data set: Drug resistance test, 20 serial passages. Format: cell-based, Staphylococcus aureus. To be noted: MRSA DM21455, FIG. 7.
The subject of data set [14] is Enterococcus faecalis 11: DU9345 VRE. Description: MIC against Enterococcus faecalis DU9345 VRE. The conditions noted are these: E. faecalis DU9345 VRE; no unit in table (Example 10 MICs in μg/ml). Format: cell-based.
Data set [15] deals with Staphylococcus aureus 10: DB6506 (MRSA04/10) (VISA). Kind of data set: MIC against S. aureus DB6506 (VISA). The conditions noted are these: no unit in table (Example 10 MICs in μg/ml). Format: cell-based.

≈ marks a conversion by molar mass, not a printed value. Where two headings read alike, the source gives them in different places. Where only a bound is given, the exact number is not on record here.

Method for S. aureus DM4001: S. aureus DM4001 was harvested at early exponential phase and suspended in 40 mM PBS until OD620 of 0.09 was obtained. Then, the bacteria suspension was incubated with 3 μM of SYTOX Green in dark. The mixture was monitored in a stirring cuvette at an excitation wavelength of 504 nm and at an emission wavelength of 523 nm until the fluorescence was stable. Then, 10 μM of AM compounds were added and the changed of fluorescence emissions were monitored.

Take `COc1c(OCCCCBr)cc2oc3cc(OCCCCBr)c(CC=C(C)C)c(O)c3c(=O)c2c1CC=C(C)C` [AM-005]: in data set [1], the Cytoplasmic membrane depolarization entry was “does not depolarize the membrane”. Further, the “Minimum inhibition concentration (MIC)” value was greater than 50 µg/mL in data set [2]; greater than 50 µg/mL in data set [3]; greater than 50 µg/mL with MRSA DM21455 [4] (MRSA DM21455, Source: Eye); greater than 50 µg/mL with MRSA DM09808R (MRSA DM09808R, Source: Eye). Besides, the “SYTOX green staining of bacteria (fluorescence microscopy)” value in the data set on S. aureus DM4001 (FIG. 14) is recorded as “no significant staining”. Further, the “Membrane permeabilization (SYTOX green fluorescence emission)” value in the data set with S. aureus DM4001 (fluorescence spectroscopy) was “not able to trigger the membrane permeabilization”. The “Activity against Gram-positive bacteria” value in the data set with Gram-positive bacteria is on record as “did not show activity”. Moreover, in the data set with red blood cell, the HC50 was greater than 200 µg/mL. Besides, the “MIC99 S. aureus” value against S. aureus is greater than 200 µg/mL. Moreover, the “MIC99 MRSA” value against MRSA is greater than 200 µg/mL.

`CC[C@@H](CO)NCCN[C@@H](CC)CO` [Ethambutol]: the MIC in [5] was found to be 20 µM (≈ 4.09 µg/mL).

Turning to `COC(=O)C(CCCNC(=N)N)NC(=O)COc1cc2oc3cc(OCC(=O)NC(CCCNC(=N)N)C(=O)OC)c(OC)c(CC=C(C)C)c3c(=O)c2c(O)c1CC=C(C)C` (stereo not shown) [AM-052], the MIC99 was 6.25 µg/mL (≈ 7.21 µM) in [2]; 12.5 µg/mL (≈ 14.4 µM) in data set [3]; 1.56 µg/mL (≈ 1.8 µM) with MRSA DM21455 [4] (Methicillin-resistant S. aureus DM21455, Source: Eye); 3.125 µg/mL (≈ 3.6 µM) in data set [7]; 3.125 µg/mL (≈ 3.6 µM) in the data set with MRSA DM09808R (Methicillin-resistant S. aureus DM09808R); 6.25 µg/mL (≈ 7.21 µM) in data set [9]. For the same compound, in [6], the Solubility result is “not soluble”. The compound also displayed an HC50 in the data set with red blood cell of 238 µg/mL. The pH in [8] (Saline, 50 μg/ml compound) stood at 5.33 ± 0.05; in data set [8] (Saline, 100 μg/ml compound), 5.33 ± 0.01; in [8] (Water, 50 μg/ml compound), 6.52 ± 0.29; in data set [8] (Water, 100 μg/ml compound), 7.66 ± 0.33.

`CCCCCCCCCC(=O)N[C@@H](Cc1c[nH]c2ccccc12)C(=O)N[C@H](CC(N)=O)C(=O)N[C@@H](CC(=O)O)C(=O)N[C@@H]1C(=O)NCC(=O)N[C@@H](CCCN)C(=O)N[C@@H](CC(=O)O)C(=O)N[C@H](C)C(=O)N[C@@H](CC(=O)O)C(=O)NCC(=O)N[C@H](CO)C(=O)N[C@@H]([C@H](C)CC(=O)O)C(=O)N[C@@H](CC(=O)c2ccccc2N)C(=O)O[C@@H]1C` [Daptomycin, reference compound]: the MIC in data set [10] (MRSA-700699, Example 10, Mueller Hinton broth dilution, read-out: MIC) stood at 0.78 µg/mL (≈ 0.481 µM); in the data set on MRSA DM21455 [4] (MRSA-21455 (Eye), Example 10, Mueller Hinton broth dilution, read-out: MIC) it was 0.78 µg/mL (≈ 0.481 µM); with MRSA DM09808R (MRSA-09808R (Eye), Example 10, Mueller Hinton broth dilution, read-out: MIC), 0.195 µg/mL (≈ 0.12 µM); with MRSA DM21595 (MRSA-21595 (Wound), Example 10, Mueller Hinton broth dilution, read-out: MIC), 0.395 µg/mL (≈ 0.244 µM); in the data set on MRSA DR42412 (MRSA-42412 (Sputum), Example 10, Mueller Hinton broth dilution, read-out: MIC) it was 0.195 µg/mL (≈ 0.12 µM).

For the compound `CN[C@H](CC(C)C)C(=O)N[C@H]1C(=O)N[C@@H](CC(N)=O)C(=O)N[C@H]2C(=O)N[C@H]3C(=O)N[C@H](C(=O)N[C@H](C(=O)O)c4cc(O)cc(O)c4-c4cc3ccc4O)[C@H](O)c3ccc(c(Cl)c3)Oc3cc2cc(c3O[C@@H]2O[C@H](CO)[C@@H](O)[C@H](O)[C@H]2O[C@H]2C[C@](C)(N)[C@H](O)[C@H](C)O2)Oc2ccc(cc2Cl)[C@H]1O` [Vancomycin, reference compound], the Minimum inhibitory concentration result in data set [11] is reported as “Above 100”; in [12] it was 50; in [10] (S. aureus ATCC 700699 (VISA), no unit in table (Example 10 MICs in μg/ml)), 6.25; in [14], 1.56; in data set [15], 1.56. The “Development of drug resistance” value with MRSA DM21455 [13] is “develops drug resistance more quickly”. Moreover, the MIC came to 6.25 µg/mL (≈ 4.31 µM) in data set [10]; 0.78 µg/mL (≈ 0.538 µM) against MRSA DM21455 [4] (MRSA); 0.395 µg/mL (≈ 0.273 µM) with MRSA DM09808R (MRSA); 0.78 µg/mL (≈ 0.538 µM) in the data set with MRSA DM21595 (MRSA); 0.78 µg/mL (≈ 0.538 µM) in the data set on MRSA DR42412 (MRSA).
